What was measured:
Stability Study = format: physicochemical; details: for Appearance / Crystal Form / Product Purity: 30° C. ± 2° C./RH 65% ± 5%
Excerpt: The stability of the new crystal form prepared by the method of Example 1 of the present invention was studied.

Flowability Study = format: physicochemical
Excerpt: The flowability of the new crystal form prepared in Examples 1, 2 and 3 of the present invention was studied.

[1] = Determination of Absolute Bioavailability; details: rat, in vivo; rats, intravenous administration and oral administration

## CC(C)OC(=O)C(C)(C)N[P@](=O)(CO[C@H](C)Cn1cnc2c(N)ncnc21)Oc1ccccc1.O=C(O)/C=C/C(=O)O [crystal form A, 9-[(R)-2-[[(S)-[[[1-(isopropoxycarbonyl)-1-methyl]ethyl]amino]phenoxyphosphinyl]methoxyl]propyl]adenine fumarate]
Stability Study; 0 month
  Appearance: off-white powder
  Crystal Form: Crystal form A
  Product Purity: 98.97%
Stability Study; 3 months
  Appearance: off-white powder
  Crystal Form: Crystal form A
  Product Purity: 98.95%
Stability Study; 6 months
  Appearance: off-white powder
  Crystal Form: Crystal form A
  Product Purity: 98.92%
Stability Study; room temperature
  Stability: stable at room temperature
Stability Study; stability test
  Chemical degradation in the stability test: did not undergo chemical degradation
  Crystal form transformation in the stability test: did not undergo transformation
Flowability Study
  Flowability: good flowability
Flowability Study; listed as Example 1
  Repose Angle: 36°
Flowability Study; listed as Example 2
  Repose Angle: 35°
Flowability Study; listed as Example 3
  Repose Angle: 34°
[1]
  bioavailability: 81%
